In ChEMBL document CHEMBL4308908, “Lamellarin-inspired potent topoisomerase I inhibitors with the unprecedented benzo[g][1]benzopyrano[4,3-b]indol-6(13H)-one scaffold” (Bioorg Med Chem, 2019):

How the values were obtained:
Format in all cases: functional
MKN-28 = assay: Antiproliferative activity against human MKN28 cells after 48 hrs by SRB assay; settings: MKN-28, 48 h, read-out: GI50
SK-OV-3 = assay: Antiproliferative activity against human SKOV3 cells after 48 hrs by SRB assay; settings: SK-OV-3, 48 h, read-out: GI50
LOX IMVI = assay: Antiproliferative activity against human LOXIMVI cells after 48 hrs by SRB assay; settings: read-out: GI50
HCT-116 = assay: Antiproliferative activity against human HCT116 cells after 48 hrs by SRB assay; settings: HCT-116, 48 h, read-out: GI50
U-251 = assay: Antiproliferative activity against human U251 cells after 48 hrs by SRB assay; settings: U-251, 48 h, read-out: GI50
ACHN = assay: Antiproliferative activity against human ACHN cells after 48 hrs by SRB assay; settings: read-out: GI50
DU-145 = assay: Antiproliferative activity against human DU145 cells after 48 hrs by SRB assay; settings: DU-145, 48 h, read-out: GI50
MCF7 = assay: Antiproliferative activity against human MCF7 cells after 48 hrs by SRB assay; settings: MCF7, 48 h, read-out: GI50
NCI-H522 = assay: Antiproliferative activity against human NCI-H522 cells after 48 hrs by SRB assay; settings: NCI-H522, 48 h, read-out: GI50

SMILES	GI50 (MKN-28)	GI50 (SK-OV-3)	GI50 (LOX IMVI)	GI50 (HCT-116)	GI50 (U-251)	GI50 (ACHN)	GI50 (DU-145)	GI50 (MCF7)	GI50 (NCI-H522)
CCn1c2c3cc(OC)c(O)cc3ccc2c2c(=O)oc3cc(O)c(OC)cc3c21	< 10 nM	< 10 nM	< 10 nM	< 10 nM	< 10 nM	< 10 nM	< 10 nM	< 10 nM	< 10 nM
COc1cc2c(cc1O)oc(=O)c1c2cc2c3cc(OC)c(O)cc3ccn21	84 nM	83 nM	20 nM	33 nM	27 nM	14 nM	20 nM	76 nM	< 10 nM
COc1cc2c(cc1O)oc(=O)c1c2c(Br)c2c3cc(OC)c(O)cc3ccn21	560 nM	500 nM	25 nM	67 nM	29 nM	15 nM	28 nM	41 nM	14 nM
COc1cc2c(cc1O)oc(=O)c1c2c(CN(C)C)c2c3cc(OC)c(O)cc3ccn21	2300 nM	1600 nM	180 nM	310 nM	100 nM	44 nM	110 nM	55 nM	82 nM
C=CCn1c2c3cc(OC)c(O)cc3ccc2c2c(=O)oc3cc(O)c(OC)cc3c21	82 nM	29 nM	6.4 nM	25 nM	7.6 nM	4.2 nM	6.5 nM	14 nM	9.5 nM
C#CCn1c2c3cc(OC)c(O)cc3ccc2c2c(=O)oc3cc(O)c(OC)cc3c21	66 nM	56 nM	< 10 nM	34 nM	< 10 nM	< 10 nM	27 nM	18 nM	< 10 nM
CCc1c2c(nc3ccc(O)cc13)-c1cc3c(c(=O)n1C2)COC(=O)[C@]3(O)CC [7-ETHYL-10-HYDROXYCAMPTOTHECIN]	110 nM	23 nM	5.3 nM	23 nM	2.8 nM	5.9 nM	4.3 nM	3 nM	3.7 nM
COc1cc2c(cc1O)oc(=O)c1c2c(Cl)c2c3cc(OC)c(O)cc3ccn21	130 nM	250 nM	< 10 nM	37 nM	< 10 nM	< 10 nM	< 10 nM	13 nM	< 10 nM
COc1cc2c(cc1O)oc(=O)c1c2c(F)c2c3cc(OC)c(O)cc3ccn21	360 nM	470 nM	24 nM	120 nM	71 nM	28 nM	24 nM	110 nM	< 10 nM
COc1cc2c(cc1O)oc(=O)c1c2c(C=O)c2c3cc(OC)c(O)cc3ccn21	230 nM	230 nM	35 nM	78 nM	29 nM	26 nM	28 nM	37 nM	21 nM
COc1cc2c(cc1O)oc(=O)c1c2c(C)c2c3cc(OC)c(O)cc3ccn21	64 nM	38 nM	5.5 nM	33 nM	9.1 nM	3.8 nM	4.7 nM	110 nM	4.7 nM
